The values that follow come from patent US11512090B2, “Muscarinic acetylcholine M1 receptor antagonists” (PIPELINE THERAPEUTICS, INC., priority 2018, dated 2022).

SMILES strings stand for the structures. Read-outs that look alike come from different tables or passages of the source.

What all share (type): cell-based
The target in one test is T1, human M1 receptor (Homo sapiens, UniProt P11229).
T1 sequence (P11229 1-460): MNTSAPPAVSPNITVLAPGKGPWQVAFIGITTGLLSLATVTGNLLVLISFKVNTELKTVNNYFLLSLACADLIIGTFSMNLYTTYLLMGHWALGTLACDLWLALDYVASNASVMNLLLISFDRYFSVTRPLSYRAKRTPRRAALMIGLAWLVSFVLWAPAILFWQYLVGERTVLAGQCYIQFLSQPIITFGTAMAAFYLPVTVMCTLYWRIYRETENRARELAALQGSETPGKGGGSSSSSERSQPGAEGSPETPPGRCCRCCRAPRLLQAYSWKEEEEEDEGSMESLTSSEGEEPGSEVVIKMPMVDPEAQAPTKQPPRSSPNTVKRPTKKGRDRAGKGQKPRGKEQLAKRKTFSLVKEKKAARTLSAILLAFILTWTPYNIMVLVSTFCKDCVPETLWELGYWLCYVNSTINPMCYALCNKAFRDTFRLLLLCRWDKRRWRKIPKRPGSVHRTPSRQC
As to the kind of experiment: In vitro functional assay of muscarinic acetylcholine receptor activity (aequorin calcium flux, antagonist mode vs EC80 acetylcholine), M1. As to the method:
(§1) CHO-K1 cells stably expressing human M1 receptor with Aequorin (Perkin Elmer) were grown in F12 media, 10% FBS with 0.4 mg/mL geneticin and […]. Cells were grown to confluence and frozen down to be assayed at a later date. On the day of the experiment cells were thawed in a 37° C. water bath, resuspended in DMEM/HAM's F12 with HEPES (Invitrogen)+0.1% protease-free BSA (assay buffer), and spun down to remove freezing media. After centrifugation, supernatant was removed and 12 mL of assay buffer was added. Coelenterazine h (Promega) was added to the cells at a final concentration of 5 uM and incubated for 4 hours at room temperature in the dark. Compound master plate-96 deep well (Corning) were formatted in a 8-point DRC in assay buffer with 0.2% DMSO at a starting concentration of 60 uM (2×). After 4 hours of incubation, cells were plated at a concentration of 5×10^5 cells/well in 96 well white-walled, tissue culture-treated, clear-bottom plates (VWR). Compounds were added to the daughter plate, and cells plus compound were incubated at room temperature for 30 minutes in the dark.
(§2) Calcium flux was measured using the FlexStation 3 (Molecular Devices). To measure the antagonist dose-response, the EC80 of Acetylcholine was injected to the daughter plate using the automated compound transfer function of the Flex Station, and the increase in luminescence was measured over time. Antagonist activity was analyzed as a concentration dependent decrease in the EC80 acetylcholine response. Dose response curves were generated using Prism (GraphPad Software). The IC50 of the compounds was calculated from the dose response curve.
(In general: Calcium assays in cells follow changes in intracellular calcium, usually with a dye or a luminescent sensor.)

The next test deals with T2, M2 (Homo sapiens, UniProt P08172).
T2 sequence (P08172 1-466): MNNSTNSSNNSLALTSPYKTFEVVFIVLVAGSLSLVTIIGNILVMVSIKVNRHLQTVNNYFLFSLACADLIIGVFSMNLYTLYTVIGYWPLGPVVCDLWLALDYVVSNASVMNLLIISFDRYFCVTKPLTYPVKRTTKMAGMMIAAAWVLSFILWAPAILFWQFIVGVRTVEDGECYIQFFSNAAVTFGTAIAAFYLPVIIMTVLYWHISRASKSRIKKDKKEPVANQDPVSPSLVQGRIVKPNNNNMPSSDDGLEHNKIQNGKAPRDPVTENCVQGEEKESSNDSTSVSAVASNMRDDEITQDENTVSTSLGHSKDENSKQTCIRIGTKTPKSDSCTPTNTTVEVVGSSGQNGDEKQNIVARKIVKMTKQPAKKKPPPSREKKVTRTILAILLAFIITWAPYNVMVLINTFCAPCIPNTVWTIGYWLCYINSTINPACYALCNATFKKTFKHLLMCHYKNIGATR
The experiment in a line: In vitro functional assay of muscarinic acetylcholine receptor activity, M2. The conditions noted are these: antagonist IC50 at M2; read-out: M2 IC50. The method, then:
[The procedure below names another target; the source lists this target under the same test.] as §1, §2

In a further test the target is M3 (Homo sapiens, UniProt P20309). As to the kind of experiment: In vitro functional assay of muscarinic acetylcholine receptor activity, M3. Conditions: antagonist IC50 at M3; read-out: M3 IC50. The method, then: [The procedure below names another target; the source lists this target under the same test.] as §1, §2
Setting [1] is: CHO-K1 cells stably expressing human M1 receptor with Aequorin, decrease in EC80 acetylcholine response, read-out: M1 IC50.

Chain of M3 (P20309 whole entry): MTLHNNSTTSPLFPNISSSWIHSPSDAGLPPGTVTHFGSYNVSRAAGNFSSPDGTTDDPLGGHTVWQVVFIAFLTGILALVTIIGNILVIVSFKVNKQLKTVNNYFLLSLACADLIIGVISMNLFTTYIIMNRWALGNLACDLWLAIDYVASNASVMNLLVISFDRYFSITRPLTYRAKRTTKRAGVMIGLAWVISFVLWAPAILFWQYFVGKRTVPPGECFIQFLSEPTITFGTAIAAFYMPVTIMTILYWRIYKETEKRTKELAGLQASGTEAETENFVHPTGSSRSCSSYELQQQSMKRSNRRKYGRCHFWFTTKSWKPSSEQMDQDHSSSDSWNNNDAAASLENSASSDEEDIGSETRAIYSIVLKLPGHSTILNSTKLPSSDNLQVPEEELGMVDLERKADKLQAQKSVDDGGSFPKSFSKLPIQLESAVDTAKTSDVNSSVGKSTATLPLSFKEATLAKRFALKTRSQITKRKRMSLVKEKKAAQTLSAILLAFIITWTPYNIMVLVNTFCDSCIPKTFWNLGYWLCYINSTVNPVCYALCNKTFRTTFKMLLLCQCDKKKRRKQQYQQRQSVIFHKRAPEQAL

Take `Cc1cc(F)cnc1N1C[C@H]2C[C@@H]1CN2C(=O)CCCc1cccc2ncccc12` (racemic) [Example 53, rac-1-((1R,4R)-5-(5-fluoro-3-methylpyridin-2-yl)-2,5-diazabicyclo[2.2.1]heptan-2-yl)-4-(quinolin-5-yl)butan-1-one]: the half-inhibitory concentration (IC50) on human M1 receptor (setting [1]) was 1000 to 10000 nM; on M2, 1000 to 10000 nM; on M3 it was greater than 10000 nM.

As to `O=C(CCCc1cccc2ncccc12)N1C[C@H]2C[C@@H]1CN2c1ccc(F)cn1` (racemic) [Example 54, rac-1-((1R,4R)-5-(5-fluoropyridin-2-yl)-2,5-diazabicyclo[2.2.1]heptan-2-yl)-4-(quinolin-5-yl)butan-1-one], the IC50 at human M1 receptor (setting [1]) was 100 to 1000 nM; at M2, 1000 to 10000 nM; at M3, greater than 10000 nM.

As for `Cc1cc(F)cnc1N1CCN(C(=O)CCCc2cccc3ncccc23)[C@@H](C)C1` [Example 6, 1-[(2S)-4-(5-fluoro-3-methylpyridin-2-yl)-2-methylpiperazin-1-yl]-4-(quinolin-5-yl)butan-1-one], the IC50 at M2 and at M3 was 1000 to 10000 nM throughout.

Regarding `Cc1cc(F)cnc1N1CCN(C(=O)CCCc2cccc3nc(N)sc23)[C@@H](C)C1` [Example 20, 4-(2-amino-1,3-benzothiazol-7-yl)-1-[(2S)-4-(5-fluoro-3-methylpyridin-2-yl)-2-methylpiperazin-1-yl]butan-1-one], the IC50 on M2 and at M3 was 1000 to 10000 nM each time.

Regarding `N#Cc1ccc(N2C3CCC2CN(C(=O)CCNCc2c(F)ccc4ncnn24)C3)nc1` [Example 41, 6-(3-{3-[({6-fluoro-[1,2,4]triazolo[1,5-a]pyridin-5-yl}methyl)amino]propanoyl}-3,8-diazabicyclo[3.2.1]octan-8-yl)pyridine-3-carbonitrile], the IC50 at human M1 receptor is less than 100 nM.

In the case of `O=C(CCCc1cccc2ncccc12)N1CCN(c2ccc(F)cn2)CC1` [Example 51, 1-(4-(5-fluoropyridin-2-yl)piperazin-1-yl)-4-(quinolin-5-yl)butan-1-one], the IC50 was 1000 to 10000 nM on M2 and greater than 10000 nM on M3.

Take `CC1CN(c2ccc(F)cn2)CCN1C(=O)CCCc1cccc2ncccc12` (centres unmarked) [Example 58, 1-(4-(5-fluoropyridin-2-yl)-2-methylpiperazin-1-yl)-4-(quinolin-5-yl)butan-1-one]: the IC50 on M2 and at M3 was 1000 to 10000 nM in each case.

On to `Cc1cc(F)cnc1N1CCN(C(=O)CCCc2cccc3ncccc23)C(C)C1` (centres unmarked) [Example 59, 1-(4-(5-fluoro-3-methylpyridin-2-yl)-2-methylpiperazin-1-yl)-4-(quinolin-5-yl)butan-1-one], for which the IC50 was less than 100 nM on M2 and 100 to 1000 nM on M3.

For the compound `CC1CN(C(=O)CCCc2cccc3ncccc23)CCN1c1ccc(F)cn1` (centres unmarked) [Example 61, 1-(4-(5-fluoropyridin-2-yl)-3-methylpiperazin-1-yl)-4-(quinolin-5-yl)butan-1-one], the 50% inhibitory concentration (IC50) at M2 and at M3 was 1000 to 10000 nM throughout.

In the case of `Cc1cc(F)cnc1N1CCN(C(=O)CCCc2cccc3ncccc23)CC1C` (centres unmarked) [Example 62, 1-(4-(5-fluoro-3-methylpyridin-2-yl)-3-methylpiperazin-1-yl)-4-(quinolin-5-yl)butan-1-one], the IC50 on M2 fell in the range of 100 to 1000 nM; on M3 it was 1000 to 10000 nM.

For the compound `Cc1cc(F)cnc1N1CCN(C(=O)CCCc2cccc3ncccc23)[C@H](C)C1` [Example 66, (R)-1-(4-(5-fluoro-3-methylpyridin-2-yl)-2-methylpiperazin-1-yl)-4-(quinolin-5-yl)butan-1-one], the IC50 on M2 and at M3 was 100 to 1000 nM each time.

Turning to `C[C@@H]1CN(c2ncc(F)cc2Cl)CCN1C(=O)CCCc1cccc2ncccc12` [Example 80, (R)-1-(4-(3-chloro-5-fluoropyridin-2-yl)-2-methylpiperazin-1-yl)-4-(quinolin-5-yl)butan-1-one], the IC50 on M2 and on M3 was 1000 to 10000 nM throughout.

As to `Cc1cc(F)cnc1N1CCN(C(=O)CCCc2cccc3ncoc23)[C@@H](C)C1` [Example 83, (S)-4-(benzo[d]oxazol-7-yl)-1-(4-(5-fluoro-3-methylpyridin-2-yl)-2-methylpiperazin-1-yl)butan-1-one], the IC50 at M2 and on M3 was 1000 to 10000 nM in each case.

As to `N#Cc1cc(N2CCN(C(=O)CCS(=O)(=O)c3cccc4ncsc34)CC2)ccn1` [Example 100, 4-(4-(3-(benzo[d]thiazol-7-ylsulfonyl)propanoyl)piperazin-1-yl)picolinonitrile], the results for the IC50 on M2 and at M3 were greater than 10000 nM and 1000 to 10000 nM, respectively.

`O=C(CCNCc1cccc2ncsc12)N1CCN(c2ccc(C(F)(F)F)cn2)CC1` [Example 119, 3-{[(1,3-benzothiazol-7-yl)methyl)amino}-1-{4-[5-(trifluoromethyl)pyridin-2-yl]piperazin-1-yl}propan-1-one]: the half-inhibitory concentration (IC50) on human M1 receptor (setting [1]) is 1000 to 10000 nM; on M3, greater than 10000 nM.

Take `CC1CN(C(=O)CCS(=O)(=O)c2cccc3ncsc23)CC(C)N1c1ccc(C#N)cn1` (centres unmarked) [Example 128, 6-{4-[3-(1,3-benzothiazole-7-sulfonyl)propanoyl]-2,6-dimethylpiperazin-1-yl}pyridine-3-carbonitrile]: the IC50 at M2 and at M3 was 1000 to 10000 nM throughout.

Regarding `CC1CN(c2ccc(C#N)cn2)CC(C)N1C(=O)CCS(=O)(=O)c1cccc2ncsc12` (centres unmarked) [Example 134, 6-{4-[3-(1,3-benzothiazole-7-sulfonyl)propanoyl]-3,5-dimethylpiperazin-1-yl}pyridine-3-carbonitrile], the IC50 on M2 and on M3 was greater than 10000 nM in each case.

For `Cc1ccc(N2C3CCC2CN(C(=O)CCOCc2cccn4ncnc24)C3)nn1` [Example 189, 1-[8-(6-methylpyridazin-3-yl)-3,8-diazabicyclo[3.2.1]octan-3-yl]-3-({[1,2,4]triazolo[1,5-a]pyridin-8-yl}methoxy)propan-1-one], on human M1 receptor, the IC50 is 100 to 1000 nM.

Regarding `O=Cc1ccc(N2C3CCC2CN(C(=O)CCOCc2cccn4ncnc24)C3)nc1` [Example 190, 6-{3-[3-({[1,2,4]triazolo[1,5-a]pyridin-8-yl}methoxy)propanoyl]-3,8-diazabicyclo[3.2.1]octan-8-yl}pyridine-3-carbaldehyde], on human M1 receptor, the IC50 is less than 100 nM.

In the case of `N#Cc1ccc(N2C3CCC2CN(C(=O)CCN(Cc2cccc4ncnn24)C2CCC2)C3)nc1` [Example 191, 6-(3-{3-[cyclobutyl({[1,2,4]triazolo[1,5-a]pyridin-5-yl}methyl)amino]propanoyl}-3,8-diazabicyclo[3.2.1]octan-8-yl)pyridine-3-carbonitrile], the IC50 at human M1 receptor (setting [1]) lay in the range of 1000 to 10000 nM.

For the compound `O=C([C@H]1C[C@H](Nc2cccc3ncccc23)C1)N1CC2CCC(C1)N2c1ccncc1` [Example 196, N-[(1r,3r)-3-[8-(pyridin-4-yl)-3,8-diazabicyclo[3.2.1]octane-3-carbonyl]cyclobutyl]quinolin-5-amine], the IC50 on human M1 receptor (setting [1]) fell in the range of 1000 to 10000 nM.

Turning to `N#Cc1ccc(N2C3CCC2CN(C(=O)CCCc2cccn4ncnc24)C3)nc1` [Example 198, 6-[3-(4-{[1,2,4]triazolo[1,5-a]pyridin-8-yl}butanoyl)-3,8-diazabicyclo[3.2.1]octan-8-yl]pyridine-3-carbonitrile], the IC50 on human M1 receptor was less than 100 nM.

For `N#Cc1ccc(N2C3CCC2CN(C(=O)CCCc2cccc4ncnn24)C3)nc1` [Example 199, 6-[3-(4-{[1,2,4]triazolo[1,5-a]pyridin-5-yl}butanoyl)-3,8-diazabicyclo[3.2.1]octan-8-yl]pyridine-3-carbonitrile], the IC50 at human M1 receptor is less than 100 nM.

As usually defined, the IC50 is the concentration that inhibits the measured activity by half.
